Reference: patent US10738007B2, “Amide compounds as kinase inhibitors, compositions and methods of treatment” (TRANSLATIONAL DRUG DEVELOPMENT, LLC, priority 2016, dated 2020)
Like-named read-outs stand apart in the source and are kept apart here.

Key:
MV411 cell line = assay: Cell viability assay ([…]-GLO), MV411; type: cell-based; conditions: for IC50: MV411 (ITD-FLT3+), 72 hours treatment; for FLT3-ITD+ Selectivity (K562/MV411): ratio K562/MV411
Description: Cell viability was measured by the […] -GlO® cell viability assay from Promega (Madison, Wis.). The […] -GlO Luminescent Cell Viability Assay is a homogeneous method to determine the number of viable cells in culture based on quantitation of the ATP present, which signals the presence of metabolically active cells. Following treatment, […] -GlO® is added to treatment wells and incubated at 37° C. Luminescence values were measured at using a Molecular Devices Spectramax microplate reader.

K562 cell line = assay: Cell viability assay ([…]-GLO), K562; type: cell-based; conditions: K562 (does not express ITD-FLT3), 72 hours treatment
Description: Cell viability in the presence of varying concentrations of the above listed compounds at different time points was used to assess cytotoxicity and the effect of the compounds on cell proliferation.
Cell viability was measured by the […]-GlO® cell viability assay from Promega (Madison, Wis.). The […]-GlO Luminescent Cell Viability Assay is a homogeneous method to determine the number of viable cells in culture based on quantitation of the ATP present, which signals the presence of metabolically active cells. Following treatment, […]-GlO® is added to treatment wells and incubated at 37° C. Luminescence values were measured at using a Molecular Devices Spectramax microplate reader.
Cells were grown to 70% confluency, trypsinized, counted, and seeded in 96 well flat-bottom plates at a final concentration of 2.5×10^3-5×10^3 cells/well (Day 0). Cells were allowed to incubate in growth media for 24 hours. Treatment with the test agents or standard agents began on Day 1 and continued for 72 hours. At the 72-hour time point, treatment containing media was removed. Viable cell numbers were quantified by the […]-GLO® cell viability assay as described above. Results from these studies were used to calculate an IC50 value (concentration of drug that inhibits cell growth by 50 percent of control) for each compound.
For single agent and combination studies, data from each experiment was collected and expressed as % Cell Growth using the following calculation: % Cell Growth=(ftest/fvehicle)×100
Where ftest is the luminescence of the tested sample, and fvehicle is the luminescence of the vehicle in which the drug is dissolved. Dose response graphs and IC50 values were generated using Prism 6 software (GraphPad) using the following equation: Y=(Top−Bottom)/(1+10^((logIC50-X)−HillSlope))
Where X is the logarithm of the concentration and Y is the response. Y starts at the Bottom and goes to the Top with a sigmoid shape.
The experiments also evaluated the selectivity of the compounds for inhibiting growth of cancer cells carrying a mutation in the Flt3 gene. The MV411 cell line expresses the mutant allele of Flt3 with internal tandem duplications (ITD) of the gene. See Quentmeier et al., “FLT3 Mutations in Acute Myeloid Leukemia Cell Lines,” Leukemia 17(1), 2003, 120-124. […] See Grafone et al., “Monitoring of FLT3 Phosphorylation Status and Its Response to Drugs By Flow Cytometry in AML Blast Cells,” Hematol Oncol. 26(3), 2008, 159-166.

ROCK2 = ROCK2 (Homo sapiens (Human), UniProt O75116); assay: ROCK2 kinase inhibition assay (peptide phosphorylation, LABCHIP 3000); type: biochemical; conditions: 7 μM ATP, 2.5 nM ROCK2, 3 hours at 25° C.
ROCK1 = ROCK1 (Homo sapiens (Human), UniProt Q13464); assay: ROCK1 kinase inhibition assay (peptide phosphorylation, LABCHIP 3000); type: biochemical; conditions: 5 μM ATP, 3 nM ROCK1, 3 hours at 25° C.
Description: The peptide is phosphorylated by the protein kinase ROCK1 or ROCK2. The ROCK1 or ROCK2 enzyme, substrate, and cofactors (ATP and Mg^2+) are combined in a well of a microtiter plate and incubated for 3 hours at 25° C. in the presence or absence of an inhibitor compound. At the end of the incubation, the reaction is quenched by the addition of an EDTA-containing buffer. The substrate and product are separated and quantified electrophoretically using the microfluidic-based LABCHIP® 3000 Drug Discovery System from Caliper Life Sciences (Hopkinton, Mass.).
The components of the assay mixture are:
10 μM Sodium Orthovanadate
10 LM Beta-Glycerophosphate
5 μM ATP (for ROCK1) or 7 μM ATP (for ROCK2)
3 nM ROCK1 or 2.5 nM ROCK2 enzyme
Substrate and product peptides present in each sample are separated electrophoretically using the LABCHIP® 3000 capillary electrophoresis instrument. […] Change in the relative fluorescence intensity of the substrate and product peaks is the parameter measured reflecting enzyme activity. Capillary electrophoregramms (RDA acquisition files) are analyzed using HTS Well Analyzer software (Caliper Life Sciences, Hopkinton, Mass.). The kinase activity in each sample is determined as the product to sum ratio (PSR): P/(S+P), where P is the peak height of the product peptide and S is the peak height of the substrate peptide. For each compound, enzyme activity is measured at various concentrations (12 concentrations of compound spaced by 3× dilution intervals). Negative control samples (0%-inhibition in the absence of inhibitor) and positive control samples (100%-inhibition in the presence of 20 mM EDTA) are assembled in replicates of four and are used to calculate %-inhibition values for each compound at each concentration. Percent inhibition (Pinh) is determined using the following equation: Pinh=(PSRO %−PSRinh)/(PSRO %−PSR100%)*100
where PSRinh is the product sum ratio in the presence of inhibitor, PSRO % is the average product sum ratio in the absence of inhibitor, and PSR100% is the average product sum ratio in 100%-inhibition control samples. The IC50 values of inhibitors are determined by fitting the inhibition curves (Pinh versus inhibitor concentration) by the 4-parameter sigmoidal dose-response model using XLfit 4 software (IBDS).

[1] = Pharmacokinetic activity in mice; type: in vivo; conditions: for AUC(0-t): read-out: AUC0-8; for Vd: read-out: Vss
Description: Compounds were individually and accurately weighed out to produce a stock solution in Dimethyl-sulfoxide (DMSO) at a concentration of 2 mg/mL and stored at −20° C. From the stock solution, a working stock was prepared by diluting it in Methanol-Water 50:50 (v/v) at 20 μg/mL for calibration curve preparation and stored at 4° C. Standards used for quantitation and quality control samples (QCs) were prepared on the same day of sample processing using blank plasma obtained from non-treated mice. For each analyte, standards were prepared through serial dilutions of the working stock at concentrations of 0.1, 0.5, 1.0, 10, 50, 100, 500, and 1000 ng/mL; QCs were prepared at intermediate concentrations of 0.75, 7.5, 75, and 750 ng/mL. Plasma samples were stored at −80° C. until ready for analysis and then placed on ice for thawing. An aliquot of […] samples, standards, or QCs, were transferred into a 96-well extraction plate according to a pre-defined layout. An appropriate volume of Methanol-Formic Acid 99.9-0.1 containing internal standard (Verapamil at 25 ng/mL) was added to each well and the samples were extracted under vacuum. Eluent was then transferred into a LCMS plate for analysis using a suitable column for separation and MRM detection. Concentration of analytes was calculated based on the calibration curve and analyzed for pharmacokinetic parameters by using Non-compartmental analysis (NCA). Parameters such as Cmax, Tmax, half-life, AUC(0-last), AUC(0-∞), volume of distribution (Vss), and clearance (Cl/F) were reported.

Chain of ROCK1 (Q13464 whole entry, species assumed): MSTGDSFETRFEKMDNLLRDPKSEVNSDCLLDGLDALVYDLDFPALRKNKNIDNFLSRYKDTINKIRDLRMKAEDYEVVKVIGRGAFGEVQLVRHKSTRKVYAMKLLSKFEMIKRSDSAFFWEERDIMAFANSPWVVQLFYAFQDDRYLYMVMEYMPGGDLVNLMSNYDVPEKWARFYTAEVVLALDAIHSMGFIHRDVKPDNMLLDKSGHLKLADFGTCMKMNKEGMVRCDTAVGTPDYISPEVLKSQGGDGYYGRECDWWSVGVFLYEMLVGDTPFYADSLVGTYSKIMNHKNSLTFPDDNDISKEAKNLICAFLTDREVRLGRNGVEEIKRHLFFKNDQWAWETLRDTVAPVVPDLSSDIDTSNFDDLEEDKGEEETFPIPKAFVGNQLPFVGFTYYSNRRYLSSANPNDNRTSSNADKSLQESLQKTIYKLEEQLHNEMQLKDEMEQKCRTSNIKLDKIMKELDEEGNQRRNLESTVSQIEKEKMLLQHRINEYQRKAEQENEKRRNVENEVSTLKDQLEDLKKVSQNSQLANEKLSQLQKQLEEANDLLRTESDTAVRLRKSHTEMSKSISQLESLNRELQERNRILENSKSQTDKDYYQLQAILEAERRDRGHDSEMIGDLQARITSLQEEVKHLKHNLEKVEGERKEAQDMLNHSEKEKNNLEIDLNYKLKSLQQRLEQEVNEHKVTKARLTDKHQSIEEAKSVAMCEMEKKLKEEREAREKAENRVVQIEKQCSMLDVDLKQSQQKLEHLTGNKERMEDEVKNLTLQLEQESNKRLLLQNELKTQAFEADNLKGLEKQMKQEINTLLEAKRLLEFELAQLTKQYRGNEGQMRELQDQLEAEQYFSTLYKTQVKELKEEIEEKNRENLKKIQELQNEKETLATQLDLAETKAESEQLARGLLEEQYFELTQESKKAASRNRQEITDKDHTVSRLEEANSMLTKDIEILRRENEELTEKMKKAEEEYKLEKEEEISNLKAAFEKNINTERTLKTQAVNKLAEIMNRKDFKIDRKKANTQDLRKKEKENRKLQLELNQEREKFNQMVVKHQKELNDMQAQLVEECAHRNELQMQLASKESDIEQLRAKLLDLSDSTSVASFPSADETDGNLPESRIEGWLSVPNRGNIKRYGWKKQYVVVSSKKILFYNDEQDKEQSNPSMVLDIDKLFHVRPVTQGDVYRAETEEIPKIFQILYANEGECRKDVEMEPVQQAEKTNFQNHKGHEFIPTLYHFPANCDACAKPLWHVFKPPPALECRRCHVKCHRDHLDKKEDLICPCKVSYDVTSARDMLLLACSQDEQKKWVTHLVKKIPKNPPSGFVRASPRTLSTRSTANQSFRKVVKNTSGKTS
Chain of ROCK2 (O75116 whole entry, species assumed): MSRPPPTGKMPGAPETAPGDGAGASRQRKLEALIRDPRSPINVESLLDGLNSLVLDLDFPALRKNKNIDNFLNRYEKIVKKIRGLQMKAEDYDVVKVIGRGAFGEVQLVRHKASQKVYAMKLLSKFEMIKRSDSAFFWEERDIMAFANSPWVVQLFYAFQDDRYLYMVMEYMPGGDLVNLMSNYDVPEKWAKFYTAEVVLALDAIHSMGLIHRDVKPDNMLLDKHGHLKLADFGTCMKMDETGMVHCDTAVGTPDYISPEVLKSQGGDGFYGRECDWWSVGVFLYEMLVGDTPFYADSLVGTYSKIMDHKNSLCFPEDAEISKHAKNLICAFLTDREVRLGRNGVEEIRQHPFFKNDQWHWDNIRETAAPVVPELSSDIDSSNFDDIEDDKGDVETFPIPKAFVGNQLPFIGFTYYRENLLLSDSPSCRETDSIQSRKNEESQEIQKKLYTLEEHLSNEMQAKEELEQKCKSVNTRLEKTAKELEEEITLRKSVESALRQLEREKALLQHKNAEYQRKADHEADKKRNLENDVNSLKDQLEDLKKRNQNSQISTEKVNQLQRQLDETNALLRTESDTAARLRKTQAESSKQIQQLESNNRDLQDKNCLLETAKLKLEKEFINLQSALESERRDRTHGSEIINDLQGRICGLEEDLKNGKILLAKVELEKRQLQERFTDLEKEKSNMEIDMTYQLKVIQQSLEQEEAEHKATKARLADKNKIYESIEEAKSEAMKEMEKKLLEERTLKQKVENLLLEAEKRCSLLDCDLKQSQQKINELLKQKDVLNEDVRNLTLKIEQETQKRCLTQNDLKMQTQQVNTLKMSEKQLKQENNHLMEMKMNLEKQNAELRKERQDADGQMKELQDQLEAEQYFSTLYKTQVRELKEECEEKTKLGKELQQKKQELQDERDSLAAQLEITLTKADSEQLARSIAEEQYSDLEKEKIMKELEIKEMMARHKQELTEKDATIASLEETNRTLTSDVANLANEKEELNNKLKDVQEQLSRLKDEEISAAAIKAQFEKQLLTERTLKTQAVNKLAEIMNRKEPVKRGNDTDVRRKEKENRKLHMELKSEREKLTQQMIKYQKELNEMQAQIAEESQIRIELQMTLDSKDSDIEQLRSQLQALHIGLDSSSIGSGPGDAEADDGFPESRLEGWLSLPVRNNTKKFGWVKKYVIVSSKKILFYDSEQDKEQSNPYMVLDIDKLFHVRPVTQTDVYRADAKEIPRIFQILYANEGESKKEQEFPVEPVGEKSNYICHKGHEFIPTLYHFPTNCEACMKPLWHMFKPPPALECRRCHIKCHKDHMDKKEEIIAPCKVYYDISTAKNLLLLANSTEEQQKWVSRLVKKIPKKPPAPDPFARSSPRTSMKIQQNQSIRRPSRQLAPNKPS

Row | SMILES | IC50 (MV411 cell line; Homo sapiens, MV4-11) [nM] | FLT3-ITD+ Selectivity (K562/MV411) (MV411 cell line) | IC50 (K562 cell line; Homo sapiens) [nM] | IC50 (ROCK2) [nM] | IC50 (ROCK1) [nM] | also measured
1 | COc1cc(-c2cn[nH]c2)ccc1C(=O)N[C@H](CO)c1cccc(C(=O)NC2CCCC2)c1 [Compound 81] | 120 | 833 | > 100000 | 0.88 | 3.2 | –
2 | C[C@@H](NC(=O)c1ccc(-c2ccncc2)cc1)c1cccc(C(=O)NC2CC2)c1 [Compound 76] | 480 | 120 | 58000 | 1.2 | 2.4 | –
3 | CCN(CC)C1CCC(NC(=O)c2cccc([C@@H](CO)NC(=O)c3ccc(-c4ccncc4)cc3)c2)CC1 (stereo partly drawn) [Compound 35] | – | – | – | 1.2 | 1.6 | –
4 | CN(C)c1ccc(CNC(=O)c2cccc([C@@H](CO)NC(=O)c3ccc(-c4ccncc4)cc3)c2)cc1 [Compound 30] | – | – | – | 1.5 | 2.9 | –
5 | O=C(NC1CCCCC1)c1cccc([C@@H](CO)NC(=O)c2ccc(-c3ccncc3)cc2)c1 [Compound 26] | 7400 | 6 | 48000 | 1.5 | 3.7 | –
6 | CN(C)c1cccc(CNC(=O)c2cccc([C@@H](CO)NC(=O)c3ccc(-c4ccncc4)cc3)c2)c1 [Compound 31] | – | – | – | 1 | 2.1 | –
7 | CN(C)CCNC(=O)COc1cccc(CNC(=O)c2ccc(-c3ccncc3)cc2)c1 [Compound 4] | – | – | – | 18.9 | 56.1 | –
8 | C[C@@H](NC(=O)c1ccc(-c2ccncc2)cc1)c1cccc(C(=O)NC2CCCC2)c1 [Compound 36] | – | – | – | – | – | AUC % Extrap ([1]; IV - 1 mg/kg): 0.35%; Cl/F obs ([1]; IV - 1 mg/kg): 2.67 mL/min/kg; R-sq ([1]; IV - 1 mg/kg): 0.72; AUC % Extrap ([1]; PO - 5 mg/kg): 0.33%; R-sq ([1]; PO - 5 mg/kg): 1.00; AUC(0-inf) ([1]; mouse, plasma, IV - 1 mg/kg): 6070 ng·h/mL; C0 ([1]; mouse, plasma, IV - 1 mg/kg): 5910 ng/mL; Cmax ([1]; mouse, plasma, IV - 1 mg/kg): 4340 ng/mL; Tmax ([1]; mouse, plasma, IV - 1 mg/kg): 0.25 h; half-life ([1]; mouse, plasma, IV - 1 mg/kg): 2.59 h; AUC(0-t) ([1]; mouse, plasma, IV - 1 mg/kg): 5850 ng·h/mL; Vd ([1]; mouse, plasma, IV - 1 mg/kg): 0.27 L/kg; AUC(0-inf) ([1]; mouse, plasma, PO - 5 mg/kg): 10500 ng·h/mL; CL/F ([1]; mouse, plasma, PO - 5 mg/kg): 8 mL/min/kg; Cmax ([1]; mouse, plasma, PO - 5 mg/kg): 2500 ng/mL; Tmax ([1]; mouse, plasma, PO - 5 mg/kg): 1 h; half-life ([1]; mouse, plasma, PO - 5 mg/kg): 2.96 h; bioavailability ([1]; mouse, plasma, PO - 5 mg/kg vs IV - 1 mg/kg): 34.6%; AUC(0-t) ([1]; mouse, plasma, PO - 5 mg/kg): 8890 ng·h/mL; Vd/F ([1]; mouse, plasma, PO - 5 mg/kg, read-out: Vz/F obs): 2.04 L/kg
9 | CN(C)Cc1cccc(CNC(=O)c2cccc([C@@H](CO)NC(=O)c3ccc(-c4cn[nH]c4)cc3)c2)c1 [Compound 82] | 610 | 166 | > 100000 | 0.65 | 2 | –
10 | CN1CCc2ccc(NC(=O)c3cccc([C@@H](CO)NC(=O)c4ccc(-c5ccncc5)cc4)c3)cc2C1 [Compound 7] | 60 | 333 | 20400 | 1.5 | – | AUC % Extrap ([1]; IV - 1 mg/kg): 3.29%; Cl/F obs ([1]; IV - 1 mg/kg): 68.7 mL/min/kg; R-sq ([1]; IV - 1 mg/kg): 0.88; R-sq ([1]; PO - 5 mg/kg): 0.47; AUC(0-inf) ([1]; mouse, plasma, IV - 1 mg/kg): 243 ng·h/mL; C0 ([1]; mouse, plasma, IV - 1 mg/kg): 411 ng/mL; Cmax ([1]; mouse, plasma, IV - 1 mg/kg): 190 ng/mL; Tmax ([1]; mouse, plasma, IV - 1 mg/kg): 0.25 h; half-life ([1]; mouse, plasma, IV - 1 mg/kg): 6.43 h; AUC(0-t) ([1]; mouse, plasma, IV - 1 mg/kg): 235 ng·h/mL; Vd ([1]; mouse, plasma, IV - 1 mg/kg): 16.3 L/kg; Cmax ([1]; mouse, plasma, PO - 5 mg/kg): 5.3 ng/mL; Tmax ([1]; mouse, plasma, PO - 5 mg/kg): 1 h; AUC(0-t) ([1]; mouse, plasma, PO - 5 mg/kg): 81.6 ng·h/mL
11 | O=C(NCC1(O)CCCCC1)c1cccc([C@@H](CO)NC(=O)c2ccc(-c3ccncc3)cc2)c1 [Compound 69] | 150 | 350 | 52000 | 0.7 | – | –
12 | COc1cc(-c2ccncc2)ccc1C(=O)N[C@H](CO)c1cccc(C(=O)NC2CCCC2)c1 [Compound 110] | 410 | 246 | > 100000 | 2.5 | – | –
13 | CCN1CCC(CNC(=O)c2cccc([C@@H](CO)NC(=O)c3ccc(-c4ccncc4)cc3)c2)CC1 [Compound 59] | 280 | >361 | > 100000 | 0.46 | – | –
14 | CNC(=O)c1cccc([C@@H](CO)NC(=O)c2ccc(-c3ccncc3)cc2)c1 [Compound 11] | 12300 | >8 | > 100000 | 2.7 | – | –
15 | COc1ccc(NC(=O)c2cccc([C@@H](CO)NC(=O)c3ccc(-c4ccncc4)cc3)c2)cn1 [Compound 80] | – | – | – | – | 1.7 | –
16 | CCOc1cc(-c2cn[nH]c2)ccc1C(=O)N[C@H](CO)c1cccc(C(=O)NC2CCCC2)c1 [Compound 101] | 80 | 194 | 15000 | 0.25 | – | –
17 | CN(C)Cc1cccc(NC(=O)c2cccc([C@@H](CO)NC(=O)c3ccc(-c4ccncc4)cc3)c2)c1 [Compound 14] | 90 | 532 | 48000 | 1.6 | – | –
18 | O=C(NCC1CC1)c1cccc([C@@H](CO)NC(=O)c2ccc(-c3ccncc3)cc2)c1 [Compound 84] | 270 | 123 | 33000 | 1.2 | – | –
19 | CN1CCc2ccc(NC(=O)c3cccc(C(CO)NC(=O)c4ccc(-c5ccncc5)cc4)c3)cc2C1 (stereo not drawn) [Compound 2] | – | – | – | 2.8 | 2.8 | –
20 | COC(=O)N1CCC(CNC(=O)c2cccc([C@@H](CO)NC(=O)c3ccc(-c4ccncc4)cc3)c2)CC1 [Compound 91] | – | >4040 | – | 0.57 | – | IC50 (MV411 cell line): 30 nM; IC50 (K562 cell line): > 100000 nM
21 | C[C@@H](NC(=O)c1ccc(-c2cn[nH]c2)cc1)c1cccc(C(=O)NC2CCCC2)c1 [Compound 97] | 110 | 154 | 17000 | 0.74 | – | –
